Values of other authors, collected in patent US20100144679A1, “MEDICATION KITS AND FORMULATIONS FOR PREVENTING, TREATING OR REDUCING SECONDARY FRACTURES AFTER PREVIOUS FRACTURE” (DUKE UNIVERSITY, priority 2007, published 2010).

Columns and labels:
[1] = tested on: bone resorption
[2] = tested on: bone resorption; remark: listed apart in the source
[3] = patients with reduced creatinine clearances

SMILES	concentrations at which bone resorption is inhibited in vitro [1] [nM]	untoward effects on bone formation or mineralization ([2]; at the concentrations and doses that inhibit bone resorption)	doses at which bone resorption is inhibited in vivo ([2]; in vivo) [µg/kg]	fall rates [3]
O=P(O)(O)C(O)(Cn1ccnc1)P(=O)(O)O [zoledronic acid, 1-hydroxy-2-(imidazol-1-yl)ethane-1,1-d-iphosphonic acid]	0.3 to 30	without exerting any untoward effects on either bone formation or mineralization	0.3 to 30	
C=C1/C(=C\C=C2/CCC[C@]3(C)[C@@H]([C@H](C)CCCC(C)(C)O)CC[C@@H]23)C[C@@H](O)C[C@@H]1O [calcitriol]				reduces fall rates
